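Following 48 hours of exposure in 96-well plates, responses at five concentrations were used to interpolate endpoints linearly. GI50 marks 50% less growth. Definition used: TGI = concentration required for complete inhibition of growth.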
Columns and labels:
Test in all cases: growth of human tumour cells (NCI), 48 h
SK-MEL-5 melanoma = test system: SK-MEL-5 melanoma
U251 CNS = test system: U251 CNS
DLD-1 colon = test system: DLD-1 colon
DMS 114 small cell lung = test system: DMS 114 small cell lung
DMS 273 small cell lung = test system: DMS 273 small cell lung
KM20L2 colon = test system: KM20L2 colon
LXFL 529 NSCLC = test system: LXFL 529 NSCLC
M19-MEL melanoma = test system: M19-MEL melanoma
SNB-78 CNS = test system: SNB-78 CNS
HOP-18 NSCLC = test system: HOP-18 NSCLC
XF 498 CNS = test system: XF 498 CNS
RXF-631 renal = test system: RXF-631 renal

CCCCCCCCCC(=O)OCC1(CO)C/C(=C/CC(C(C)C)C(C)C)C(=O)O1 (configuration not stated)
TGI (SK-MEL-5 melanoma): > 100 µM | TGI (U251 CNS): 89.4 µM

O=c1cc(-c2ccc(O)c(O)c2)oc2cc(OC3OC(CO)C(O)C(O)C3O)cc(O)c12 (configuration not stated)
TGI (SK-MEL-5 melanoma): > 100 µM | TGI (U251 CNS): > 100 µM

CSC1=N/C(=C\c2cccs2)C(=O)N1CN1CCCCC1
TGI (SK-MEL-5 melanoma): > 100 µM | TGI (U251 CNS): > 100 µM

CN(C)c1ccc(C(C#N)N2CCCN(C(C#N)c3ccc(N(C)C)cc3)C2c2ccc(N(C)C)cc2)cc1 (configuration not stated)
TGI (SK-MEL-5 melanoma): > 100 µM | TGI (U251 CNS): > 100 µM

CC(=O)Nc1c(C)cc(OCC(=O)O)cc1C
TGI (SK-MEL-5 melanoma): > 100 µM | TGI (U251 CNS): > 100 µM

C/C(C=O)=C1\C(O)C[C@]1(C)C1CC(C)(C)CC1O (some centres not stated)
TGI (DLD-1 colon): > 100 µM | TGI (DMS 114 small cell lung): > 100 µM | TGI (DMS 273 small cell lung): > 100 µM | TGI (KM20L2 colon): > 100 µM | TGI (LXFL 529 NSCLC): > 100 µM | TGI (M19-MEL melanoma): > 100 µM | TGI (SK-MEL-5 melanoma): > 100 µM | TGI (SNB-78 CNS): > 100 µM | TGI (U251 CNS): > 100 µM

O=C(CCN(CCO)CCO)Nc1ccc2c(c1)C(=O)c1ccc(NC(=O)CCN(CCO)CCO)cc1C2=O
TGI (DMS 114 small cell lung): 19.6 µM | TGI (DMS 273 small cell lung): 22.1 µM | TGI (HOP-18 NSCLC): > 100 µM | TGI (KM20L2 colon): > 100 µM | TGI (LXFL 529 NSCLC): 16.2 µM | TGI (M19-MEL melanoma): 26.6 µM | TGI (SK-MEL-5 melanoma): 40.7 µM | TGI (SNB-78 CNS): 54.8 µM | TGI (U251 CNS): > 100 µM | TGI (XF 498 CNS): 25 µM

C1CSCC2(COC2)CS1
TGI (SK-MEL-5 melanoma): > 100 µM | TGI (U251 CNS): > 100 µM

CCOc1ccc(NCC(=O)N2CC(=O)Nc3ccccc32)cc1
TGI (DLD-1 colon): > 100 µM | TGI (DMS 273 small cell lung): > 100 µM | TGI (HOP-18 NSCLC): > 100 µM | TGI (KM20L2 colon): > 100 µM | TGI (LXFL 529 NSCLC): > 100 µM | TGI (M19-MEL melanoma): > 100 µM | TGI (SK-MEL-5 melanoma): > 100 µM | TGI (SNB-78 CNS): > 100 µM | TGI (U251 CNS): > 100 µM | TGI (XF 498 CNS): > 100 µM

N#Cc1cnn2c1n[n+]([O-])c1ccc(Cl)cc12
TGI (SK-MEL-5 melanoma): 25 µM | TGI (U251 CNS): 32.8 µM

COc1ccc(/C=C/C(=O)NCC(NC(=O)/C=C/c2ccc(OC)c(OC)c2)C(=O)O)cc1OC (configuration not stated)
TGI (SK-MEL-5 melanoma): > 100 µM | TGI (U251 CNS): > 100 µM

CCOC(=O)[C@H]1C[C@@H](C(=O)c2ccccc2)N2N=C(c3ccc(Br)cc3)C=C[C@H]12
TGI (U251 CNS): > 100 µM

CSc1nc(=S)[nH]c2n[nH]c(C)c12
TGI (SK-MEL-5 melanoma): > 100 µM | TGI (U251 CNS): > 100 µM

COc1ccc(NS(=O)CCc2ccccc2)cc1 (configuration not stated)
TGI (SK-MEL-5 melanoma): > 100 µM | TGI (U251 CNS): > 100 µM

CCn1c(=O)c2c(=O)[nH][nH]c2c2ccccc21
TGI (SK-MEL-5 melanoma): > 100 µM | TGI (U251 CNS): > 100 µM

Clc1cc(Cl)cc(N2N=C(c3cccc(Nc4ccncc4)c3)CC2c2ccccc2)c1 (configuration not stated)
GI50 (SK-MEL-5 melanoma): 1.78 µM | TGI (SK-MEL-5 melanoma): 3.23 µM

O=C1C(NCCc2cc(Br)c(O)c(Br)c2)=CC(=O)c2ncccc21
TGI (SK-MEL-5 melanoma): 2.83 µM | TGI (U251 CNS): 33 µM

CC(C#N)Nc1ccc(Oc2ccc(C(C)(C)c3ccc(Oc4ccc(NC(C)C#N)cc4)cc3)cc2)cc1 (configuration not stated)
TGI (SK-MEL-5 melanoma): > 100 µM | TGI (U251 CNS): > 100 µM

CC1CN=C(NCc2ccccc2)S1 (configuration not stated)
TGI (U251 CNS): > 100 µM

COC(=O)n1c(=O)nc2c3c(ncn21)Oc1c(c(-c2ccccc2)nn1-c1ccccc1)C3c1ccc(Cl)cc1 (configuration not stated)
TGI (SK-MEL-5 melanoma): 3.16 µM | TGI (U251 CNS): 3.08 µM

CN(C)c1ccc(C2CC(=O)CC(c3ccc(N(C)C)cc3)C23C(=O)NC(=O)NC3=O)cc1 (configuration not stated)
TGI (SK-MEL-5 melanoma): > 25 µM | TGI (U251 CNS): > 25 µM

CC(SC1=CC(=O)c2c(Cl)ccc(O)c2C1=O)C(=O)O (configuration not stated)
TGI (DLD-1 colon): 34.7 µM | TGI (DMS 114 small cell lung): 38.4 µM | TGI (DMS 273 small cell lung): 35.6 µM | TGI (HOP-18 NSCLC): 75.8 µM | TGI (KM20L2 colon): > 100 µM | TGI (LXFL 529 NSCLC): 29.5 µM | TGI (SK-MEL-5 melanoma): 27.5 µM | TGI (SNB-78 CNS): 26.3 µM | TGI (U251 CNS): 40.2 µM | TGI (XF 498 CNS): 34.2 µM

c1ccc(C2=NN(c3ccccc3)C3(S2)SC(c2ccccc2)(c2ccccc2)c2ccccc23)cc1 (configuration not stated)
TGI (DLD-1 colon): > 100 µM | TGI (DMS 114 small cell lung): > 100 µM | TGI (DMS 273 small cell lung): > 100 µM | TGI (KM20L2 colon): > 100 µM | TGI (LXFL 529 NSCLC): > 100 µM | TGI (M19-MEL melanoma): > 100 µM | TGI (SK-MEL-5 melanoma): > 100 µM | TGI (SNB-78 CNS): > 100 µM | TGI (U251 CNS): > 100 µM | TGI (XF 498 CNS): > 100 µM

CC(=O)Nc1ccc(-c2nnc(SCC(=O)Nc3ccccc3Cl)o2)cc1
TGI (DLD-1 colon): > 100 µM | TGI (DMS 114 small cell lung): > 100 µM | TGI (DMS 273 small cell lung): > 100 µM | TGI (HOP-18 NSCLC): > 100 µM | TGI (KM20L2 colon): > 100 µM | TGI (LXFL 529 NSCLC): > 100 µM | TGI (M19-MEL melanoma): > 100 µM | TGI (SK-MEL-5 melanoma): > 100 µM | TGI (SNB-78 CNS): > 100 µM | TGI (U251 CNS): > 100 µM

CCCOC(=O)c1cc(C(=CCC[C@H]2CC[C@@]3(C)[C@@H](CC[C@@H]4[C@@H]3CC[C@]3(C)[C@@H](C(C)CCCC(C)C)CC[C@@H]43)C2)c2cc(Cl)c(O)c(C(=O)OCCC)c2)cc(Cl)c1O (some centres not stated)
TGI (SK-MEL-5 melanoma): > 50 µM | TGI (U251 CNS): > 50 µM

Cc1nc2ccccc2nc1NS(=O)(=O)c1ccc(N)cc1
TGI (DLD-1 colon): > 100 µM | TGI (DMS 273 small cell lung): > 100 µM | TGI (HOP-18 NSCLC): > 100 µM | TGI (KM20L2 colon): > 100 µM | TGI (LXFL 529 NSCLC): > 100 µM | TGI (M19-MEL melanoma): > 100 µM | TGI (RXF-631 renal): > 100 µM | TGI (SK-MEL-5 melanoma): > 100 µM | TGI (SNB-78 CNS): > 100 µM | TGI (U251 CNS): > 100 µM | TGI (XF 498 CNS): > 100 µM

Cc1ccc(S(=O)(=O)N/N=C2\C(=O)C3CC2C(Cl)C3Cl)cc1 (configuration not stated)
TGI (DLD-1 colon): > 100 µM | TGI (DMS 114 small cell lung): > 100 µM | TGI (DMS 273 small cell lung): > 100 µM | TGI (HOP-18 NSCLC): > 100 µM | TGI (KM20L2 colon): > 100 µM | TGI (LXFL 529 NSCLC): > 100 µM | TGI (RXF-631 renal): > 100 µM | TGI (SK-MEL-5 melanoma): > 100 µM | TGI (U251 CNS): > 100 µM

NC(=S)N/N=C/c1cc(CN2CCOCC2)c(N)cn1
TGI (SK-MEL-5 melanoma): > 100 µM | TGI (U251 CNS): > 100 µM

COc1ccc2oc(=N)c(C(N)=S)cc2c1
TGI (SK-MEL-5 melanoma): 57.8 µM | TGI (U251 CNS): > 100 µM

O=c1nc2n(CCO)c(-c3ccccc3)c(-c3ccccc3)nc-2c(=O)[nH]1
TGI (SK-MEL-5 melanoma): > 100 µM | TGI (U251 CNS): > 100 µM

CCCCCCN(C(=O)Oc1ccccc1)C(C#N)c1ccccc1 (configuration not stated)
TGI (SK-MEL-5 melanoma): > 100 µM | TGI (U251 CNS): > 100 µM

O=S(=O)(CC1=NC2C=CC=CC2N=C1)NCc1ccccc1 (configuration not stated)
TGI (DLD-1 colon): > 100 µM | TGI (DMS 273 small cell lung): > 100 µM | TGI (HOP-18 NSCLC): > 100 µM | TGI (KM20L2 colon): > 100 µM | TGI (LXFL 529 NSCLC): > 100 µM | TGI (M19-MEL melanoma): > 100 µM | TGI (SK-MEL-5 melanoma): > 100 µM | TGI (U251 CNS): > 100 µM | TGI (XF 498 CNS): > 100 µM

Reference: PubChem BioAssay (NCI)
